Results: PMC5379102, “Sequence-selective encapsulation and protection of long peptides by a self-assembled Fe^II8L6 cubic cage” (Nature Communications, 2017)
Entries after “also recorded” stand apart in the source; their conditions may differ. Read-outs that look alike come from different tables or passages of the source. Values belong to the compound of their own block, whether it stands above or below them. Non-standard residues stand in square brackets, D forms with d. Residues, ends and D or L forms follow the SMILES beside them. No end group written: not given here. *: point of attachment. Dnp = O=[N+]([O-])c1ccc(*)c([N+](=O)[O-])c1; 2Abz = Nc1ccccc1C(=O)O

Columns and labels:
[1] = tested on: cage 1 (Fe^II8L6 cubic cage with zinc porphyrin faces); assay: Ultraviolet-visible titration of cage 1 with guest (host-guest binding)
Protocol: Ultraviolet–visible absorption spectroscopy measurements were performed using a Perkin Elmer Lambda 750 UV-Vis-NIR spectrophotometer fitted with a PTP-1 Peltier temperature controller accessory. Spectra were obtained in double beam mode using only the (front) analyte beam to record spectra, with air in the (rear) reference path. Samples were analysed using quartz cuvettes with optical path lengths of 1 mm. Unless otherwise specified, 417 nm was the wavelength selected to follow the binding of the guest.
A solution of 1 in CH3CN:H2O (1:1) (250 μl, 1.5 μM) or pure acetonitrile was transferred to a cuvette. Small aliquots of the guest's solution were titrated into the cuvette. The experiment was performed at room temperature. Each experiment was repeated three times (Supplementary Figs 31–46 and Supplementary Methods). Data obtained from the ultraviolet–visible titration were then fitted using nonlinear analysis with DynaFit programme (Biokin Software)[30] to the binding equation derived for either 1:1 model (porphyrin:guest with one imidazole group) or 2:1 model (porphyrin:guest with two imidazole groups), except in the case of G7. G7 contains two histidine amino acids in consecutive positions, therefore the distance between the imidazole rings of these two amino acids is too short to allow the interaction with two porphyrins at the same time. In this case, the binding model was 2:1 peptide:cage.
The dilution effect was corrected by multiplying the observe intensity for the dilution factor before the fitting. The error reported for each affinity value is the formal standard error calculated by DynaFit[30] as the square root of the diagonal elements of the variance–covariance matrix. This s.e. gives an idea of the precision of the fitted value.
The experimental data obtained using UV-Vis spectroscopy for each guest was fitted using
nonlinear analysis with DynaFit program (Biokin Software)2 to the binding equation derived
for 1:1 model porphyrin:imidazole group (non-cooperative model). […]

Solubility observations = type: physicochemical
Protocol: In a J-Young NMR tube porphyrin A (4 mg, 3.3 μmol, 6 equiv.; Supplementary Figs 1–4 and Supplementary Methods), iron(II) triflate (1.5 mg, 4.4 μmol, 8 equiv.) and 5,6,7,8-tetrahydronaphthalen-2-amine B (1.9 mg, 13 μmol, 24 equiv.) were suspended in [D7]DMF (400 μl) and [D3]MeCN (100 μl). The solution was deoxygenated by three freeze-pump-thaw cycles, the tube was sealed, and heated in the oil bath for 8 h at 70 °C. After this time, the solution was opened to air and cooled to room temperature. […] The suspension was centrifuged and the solvent above the solid was removed. The purple solid was washed twice with chloroform (3 ml) and partially dried under nitrogen. The solid was dissolved in acetonitrile (0.5 ml) after drying with nitrogen. 1 (Supplementary Figs 5–12) was not soluble in pure water, but it is soluble in a 1:1 acetonitrile:water mixture (1 mg ml^−1).

[2] = Trypsinization experiments (peptide hydrolysis by trypsin, with or without 1); type: in vitro ADME; conditions: isolated enzyme trypsin; peptide 20 μM, trypsin 6 μM (0.3 equiv.), 40% CH3CN / 50% phosphate buffer (0.1 M, pH 7.5, 0.2 M NaCl) / 10% H2O, room temperature, 30 min, RP-HPLC UV; read-out: cleavage by trypsin, single peptide, no 1
Protocol: (§1) Finally, we envisaged that the closed cubic architecture of 1 could protect its histidine-containing peptide guests from enzymatic degradation. For these experiments we used the protease trypsin, which cleaves exclusively on the C-terminal side of lysine and arginine residues. We initially examined G7 as a substrate. […] The incubation of a 20 μM solution of G8 with 0.3 equiv. of trypsin in a mixture of acetonitrile and phosphate buffer (pH=7.5) for 30 min led to the cleavage of G8 in 76% yield (Supplementary Fig. 49). When the same reaction was run in the presence of 0.6 equiv. of 1 (2:1 binding stoichiometry), the extent of cleavage was only 9% (Supplementary Fig. 50). The low degree of enzymatic degradation observed is consistent with the 9 μM dissociation constant of the adduct between 1 and G8, which implies the presence of a small amount of free peptide under the reaction conditions. Importantly, when the same experiment was carried out with a non-binding G9 in place of G8, with or without 1, quantitative G9 cleavage was observed (Supplementary Figs 52 and 53). In a further test, we treated a mixture of both peptides and 1 with trypsin, and incubated the mixture under identical conditions. In this case almost complete selectivity was observed.
(§2) Trypsinization reactions were followed by analytical RP-HPLC with an Agilent 1,100 series LC using an Eclipse XDB-C18 analytical column (3 × 150 mm, 3.5 μm). Standard conditions for analytical RP-HPLC consisted on a linear gradient from 0 to 10% of solvent B in 5 min, it then increased from 10 to 70% in 30 min at a flow rate of 1.0 ml min^−1 (A: water with 0.1% trifluoroacetic acid (TFA), B: acetonitrile with 0.1% TFA); 55 μl of solution was injected to the column each time. Compounds were detected by ultraviolet absorption and subsequently characterized by electrospray ionization (ESI) (Supplementary Figs 48–56).
(§3) The samples were prepared in 200 μl solution (40% CH3CN, 50% phosphate buffer and 10% H2O; phosphate buffer: 0.1 M, pH 7.5, 0.2 M NaCl). The concentration of the solution components were: peptides (G8 and G9) 20 μM, trypsin 6 μM and 1 12 μM. However, not all components were present in each sample, as noted in the main text. The reaction mixtures were stirred at room temperature for 30 min. It was observed that longer reaction times cause degradation of 1 due to the high concentration of NaCl in the phosphate buffer. After this time, H2O (200 μl) and acetic acid (8 μl) were added to quench the reaction. In the case of the control experiments with free Zn porphyrins, the concentration of the porphyrin was 72 μM.

trypsin = assay: as above; type: in vitro ADME
Protocol: as §1, §2, §3

[3] = tested on: cage 1 (Fe^II8L6 cubic cage with zinc porphyrin faces); assay: Host-guest chemistry studied by 1H NMR titration; type: binding; conditions: shifts of β-pyrrolic protons of 1
Description: We used 1-methylimidazole (G1) as an initial probe, following its binding by ^1H NMR spectroscopy. Due to the large cavity, only slight upfield shifts of the signals of the β-pyrrolic protons of 1 were observed following the addition of G1. […] However, when a 1:1 mixture of water:acetonitrile was used, it was necessary to add 70 equivalents to achieve saturation (Supplementary Fig. 27). We infer the weaker interaction in the presence of water to be due to competing hydrogen bonding between water and imidazole.
A solution of 1 (0.5 ml) was prepared in a mixture of CD3CN:D2O (1:1) or in pure CD3CN and was transferred to a J-Young NMR tube. Aliquots of the guest were added in the same mixture of solvents. The NMR spectrum was recorded after each addition and the sample was mixed thoroughly before each measurement (Supplementary Figs 26–30).

[4] = 1:1 acetonitrile:water, 20 °C, 1 at 1.5 μM, UV-Vis at 417 nm, non-cooperative 1:1 imidazole (or thiazole):porphyrin model, except G7 (2:1 peptide:1), DynaFit fit, ± formal standard error, repeated three times, read-out: Kd (μM) in CD3CN:H2O (1:1)
[5] = 1:1 acetonitrile:water, 20 °C, 1 at 1.5 μM, UV-Vis at 417 nm, non-cooperative 1:1 imidazole (or thiazole):porphyrin model, except G7 (2:1 peptide:1), DynaFit fit, ± formal standard error, repeated three times
[6] = peptide 20 μM, trypsin 6 μM, 1 12 μM, 40% CH3CN / 50% phosphate buffer (0.1 M, pH 7.5, 0.2 M NaCl) / 10% H2O, room temperature, 30 min, RP-HPLC UV

Compound: VFQFLGKIIHHVGNFVHGFSHVF [Guest G7, Clavanin A]
- equivalents of guest that saturate the cage (UV-Vis) ([1]; 1:1 CH3CN:H2O, 20 °C, 1 at 1.5 µM (G7 3 µM)): two
- Kd ([1]; 1:1 CH3CN:H2O, 20 °C, 1 at 1.5 µM (Supplementary Figure 43), 2:1 peptide:1 model, read-out: Kd, titration at 1.5 µM cage): 0.06 ± 0.05 µM
- Kd [1, 4]: 0.08 ± 0.02 µM
- solubility at neutral pH (Solubility observations; trypsinization conditions): low solubility

Compound: CC[C@H](C)[C@H](NC(=O)[C@@H](N)CCC(=O)O)C(=O)N[C@@H](CC(C)C)C(=O)N[C@@H](CC(=O)O)C(=O)N[C@H](C(=O)N1CCC[C@H]1C(=O)N[C@@H](CO)C(=O)N[C@H](C(=O)O)[C@@H](C)O)C(C)C [Guest G10, H2N-E-I-L-D-V-P-S-T-OH]
- Kd (μM) in CD3CN:H2O (1:1) [1, 5]: no binding interaction; also recorded: not observed to interact

Compound: Cn1ccnc1 [Guest G1, 1-methylimidazole]
- equivalents of guest at saturation (1H NMR) ([3]; in 1:1 water:acetonitrile): 70 equivalents
- equivalents of guest at saturation (1H NMR) ([3]; in acetonitrile): seven
- Kd [1, 4]: 900 ± 70 µM
- Kd ([1]; pure acetonitrile, 20 °C, 1 at 1.5 μM, UV-Vis at 417 nm, non-cooperative 1:1 imidazole:porphyrin model, DynaFit fit, ± formal standard error, repeated three times, read-out: Kd (μM) in CD3CN): 30 ± 1 µM

Further lines, with some results ahead:

- solubility in water or acetonitrile (Solubility observations; in either water or acetonitrile): not observed to dissolve
Compound: tetrakis(formylpyridine)porphyrin A

- Kd [1, 4]: 9 ± 2 µM
- times lower affinity than G7 ([1]; in 1:1 acetonitrile:water): 100
- metabolised at 0.5 h [2]: 76%
- yield of cleavage by trypsin, mixture of G8 and G9, 0.6 equiv of 1 (trypsin; both peptides 20 μM, trypsin 6 μM, 1 12 μM, 40% CH3CN / phosphate buffer pH 7.5, room temperature, 30 min, RP-HPLC UV): 11%
- cleavage by trypsin, single peptide, in the presence of 0.6 equiv. of 1 (trypsin; [6]): 9%
Compound: H-SSWGHVGKYVHGWSHVS-OH [Guest G8]

- hydrolysis by trypsin in the presence of free Zn porphyrin (trypsin; free A or water-soluble Zn-tetrakis(4-sulfonatophenyl)porphyrin 72 μM, peptide 20 μM, trypsin 6 μM, pH 7.5, 30 min): unaffected
- cleavage by trypsin, single peptide, no 1 (trypsin; peptide 20 μM, trypsin 6 μM (0.3 equiv.), 40% CH3CN / 50% phosphate buffer (0.1 M, pH 7.5, 0.2 M NaCl) / 10% H2O, room temperature, 30 min, RP-HPLC UV): quantitative
- cleavage by trypsin, single peptide, in the presence of 0.6 equiv. of 1 (trypsin; [6]): quantitative
Compound: CC[C@H](C)[C@H](NC(=O)CNC(=O)c1ccccc1N)C(=O)N[C@H](C(=O)N[C@@H](CCCNC(=N)N)C(=O)N[C@@H](C)C(=O)N[C@@H](CCCCNc1ccc([N+](=O)[O-])cc1[N+](=O)[O-])C(=O)O)C(C)C [Guest G9, Abz-NH-G-I-V-R-A-K(Dnp)-OH] (H-[2Abz]GIVRAK(Dnp)-OH)
- Kd (μM) in CD3CN:H2O (1:1) [1, 5]: no binding interaction; also recorded: not observed to interact

- Kd [1, 4]: 1000 ± 200 µM
Compound: c1cscn1 [thiazole]
